Results from patent US12187709B2 (Genentech, Inc., priority 2021, dated 2025).

Legend:
c-Cbl = c-Cbl (Homo sapiens (Human), UniProt P22681); assay: C-Cbl LCK Ub TR-FRET assay (C-cbl Lck HTRF); format: biochemical
Protocol: (§1) 6 μL of detection mixture was added to all wells and briefly centrifuged before incubating for 20 min at room temperature. […] IC50 was generated using no LCK as the low control and DMSO as the high control.

Cbl-b = Cbl-b (Homo sapiens (Human), UniProt Q13191); assay: Cbl-b LCK Ub TR-FRET assay (Cbl-b Lck HTRF); format: biochemical; details: for IC50: Cbl-b LCK Ub TR-FRET; for fold-selectivity (Cbl-b over C-cbl) / (fold-selectivity) Cbl-b and C-Cbl Selectivity: ratio C-cbl Lck HTRF IC50 / Cbl-b Lck HTRF IC50
Cbl-b, sequence (Q13191 40-426): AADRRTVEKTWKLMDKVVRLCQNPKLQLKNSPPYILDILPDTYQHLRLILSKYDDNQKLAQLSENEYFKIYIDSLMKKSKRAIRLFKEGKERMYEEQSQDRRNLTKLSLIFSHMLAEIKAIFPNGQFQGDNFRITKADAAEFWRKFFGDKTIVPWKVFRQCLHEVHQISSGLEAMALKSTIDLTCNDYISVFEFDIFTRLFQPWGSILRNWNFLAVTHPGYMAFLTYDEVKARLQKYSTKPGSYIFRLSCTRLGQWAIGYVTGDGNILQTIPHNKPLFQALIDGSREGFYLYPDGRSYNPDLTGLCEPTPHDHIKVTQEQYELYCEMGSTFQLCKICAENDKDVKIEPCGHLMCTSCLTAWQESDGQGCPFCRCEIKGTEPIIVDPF
Protocol: as §1

[1] = biological target: Human Cbl-b (residues 40-426) (Homo sapiens (Human), UniProt Q13191); assay: Cbl-b SPR assay; format: binding; details: C-cbl SPR Kd vs Cbl-b SPR Kd
Human Cbl-b (residues 40-426), sequence (Q13191 40-426): as above
Protocol: Affinity of binding to Cbl-b and c-Cbl for compounds described herein was assessed by surface plasmon resonance (SPR) according to the following protocol.
A surface capture range of 1300-1500 RU of protein was used for both isoforms.
For SPR measurements, 6 concentrations with 2 fold serial dilution were measured with blanks flanking each series for double referencing. […] SPR sensorgrams were recorded in multi-cycle kinetics format, with a contact time of 60 seconds and a flow rate of 40 μl/min, the dissociation time was varied between 120-1200 seconds aiming for 4-5 half-lives of the measured interaction.
Kinetic and affinity parameters were extracted from the multicycle kinetics data fitting to a 1:1 binding model using the Biacore™ Incyte evaluation software (Cytiva).
Chaser assay utilize a single cycle kinetics SPR experiment with a contact time of 120 seconds, a flow rate of 50 μl/min and a dissociation time of 450 seconds. Single cycle kinetics titration utilized an initial blank injection and 5 concentrations with 2 fold serial dilution with a maximum concentration of 500 nM, blanked to a preceding 6 point blank single cycle kinetics injection for double referencing.
The kd is measured independently by determining the percentage unoccupied compound binding site over time by measuring the binding of a chaser compound measured by SPR.
Chaser binding was measured by a multicycle kinetics SPR experiment using a contact time of 20 seconds, a flow rate of 30 μl/min, and a dissociation time of 120 seconds. […] The % compound bound at a given time was determined by comparison to a single injection of chaser preceding the single cycle kinetics titration defined below. % Compound Bound=(1−(RUT/RUT0))*100
The % compound bound is plotted against time in seconds and fit to a single exponential, where the exponent represents the kd of the compound-protein complex. The single cycle kinetics experiment of the compound is then fit with a fixed kd determined using the chaser.

c-Cbl, sequence (P22681 47-435): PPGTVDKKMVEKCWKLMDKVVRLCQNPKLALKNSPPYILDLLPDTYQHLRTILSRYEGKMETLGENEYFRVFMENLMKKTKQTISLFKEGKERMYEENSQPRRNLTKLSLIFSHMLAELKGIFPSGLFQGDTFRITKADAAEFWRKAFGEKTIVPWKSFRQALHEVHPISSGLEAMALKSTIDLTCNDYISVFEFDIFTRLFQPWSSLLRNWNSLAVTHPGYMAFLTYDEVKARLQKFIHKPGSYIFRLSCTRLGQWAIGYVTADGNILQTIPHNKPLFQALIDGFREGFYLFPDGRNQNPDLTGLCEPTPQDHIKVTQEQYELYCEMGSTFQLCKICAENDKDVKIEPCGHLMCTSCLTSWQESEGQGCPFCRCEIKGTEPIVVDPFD

IC50 (c-Cbl) [nM] | IC50 (Cbl-b) [nM] | fold-selectivity (Cbl-b over C-cbl) (Cbl-b) | IC50 (Cbl-b; Example 121) [nM] | (fold-selectivity) Cbl-b and C-Cbl Selectivity (Cbl-b) [x] | Fold of selectivity [1] [×] | SMILES
20000 | ≥ 20000 | 1.0x | – | – | – | Cn1cnnc1[C@@H](C[C@@H]1CCOC1)c1cccc(N2Cc3c(cc(CNC4(C)CCC4)cc3C(F)(F)F)C2=O)c1 [Compound 276, 2-(3-((S)-1-(4-methyl-4H-1,2,4-triazol-3-yl)-2-((R)-tetrahydrofuran-3-yl)ethyl)phenyl)-6-(((1-methylcyclobutyl)amino)methyl)-4-(trifluoromethyl)isoindolin-1-one]
2100 | 1400 | 1.6x | – | – | – | Cn1cnnc1[C@@H](CC1CCCC1)c1cccc(N2Cc3c(cc(CNC4(C)CCC4)cc3C(F)(F)F)C2=O)c1 [Compound 248, (S)-2-(3-(2-cyclopentyl-1-(4-methyl-4H-1,2,4-triazol-3-yl)ethyl)phenyl)-6-(((1-methylcyclobutyl)amino)methyl)-4-(trifluoromethyl)isoindolin-1-one]
3700 | 510 | 7.3x | – | – | – | C[C@@H](NC1(C)CCC1)c1cc2c(c(C(F)(F)F)c1)CN(c1cccc(C(c3nncn3C)C3COC3)c1)C2=O (stereo partly drawn) [Compound 284, 2-(3-((4-methyl-4H-1,2,4-triazol-3-yl)(oxetan-3-yl)methyl)phenyl)-6-((R)-1-((1-methylcyclobutyl)amino)ethyl)-4-(trifluoromethyl)isoindolin-1-one]
1500 | – | – | 230 | 6.5 | – | CO[C@H]1C[C@](c2cccc(N3Cc4c(cc(CN5CCC6(CC5)CC(O)C6)cc4C(F)(F)F)C3=O)c2)(c2nncn2C)C1 [Compound 424, 6-((2-hydroxy-7-azaspiro[3.5]nonan-7-yl)methyl)-2-(3-((1r,3r)-3-methoxy-1-(4-methyl-4H-1,2,4-triazol-3-yl)cyclobutyl)phenyl)-4-(trifluoromethyl)isoindolin-1-one]
6700 | 1000 | (6.7x) | – | – | – | Cn1cnnc1[C@H](c1cccc(N2Cc3c(cc(CNC4(C)CCC4)cc3C(F)(F)F)C2=O)c1)N1CC(F)(F)C1 (single isomer, unassigned) [Compound 56]
– | 38 | (1.6x) | – | – | – | Cn1cnnc1[C@]1(c2cc(NC3CCCCC3)nc(N3Cc4c(cc(CNC5(C)CCC5)cc4C(F)(F)F)C3=O)c2)C[C@H](C)C1 [Compound 51, 2-(6-(cyclohexylamino)-4-((1s,3s)-3-methyl-1-(4-methyl-4H-1,2,4-triazol-3-yl)cyclobutyl)pyridin-2-yl)-6-(((1-methylcyclobutyl)amino)methyl)-4-(trifluoromethyl)isoindolin-1-one]
11000 | – | – | 7100 | 1.6 | – | Cn1cnnc1[C@H](c1cccc(N2Cc3c(cc([C@@H](NC4(C)CCC4)C4CC4)cc3C(F)(F)F)C2=O)c1)C1COC1 (single isomer, unassigned) [Compound 457]
12000 | 7100 | 1.7x | – | – | – | CO[C@H]1C[C@](O)(C(c2cccc(N3Cc4c(cc(CNC5(C)CCC5)cc4C(F)(F)F)C3=O)c2)c2nncn2C)C1 (single isomer, unassigned) [Compound 367]
– | 31 | (1.7x) | – | – | 3.0 | Cn1cnnc1[C@]1(c2cc(NC3CCCCC3)nc(N3Cc4c(cc(CNC5(C)CCC5)cc4C(F)(F)F)C3=O)c2)C[C@@H](C)C1 [Compound 50, 2-(6-(cyclohexylamino)-4-((1r,3r)-3-methyl-1-(4-methyl-4H-1,2,4-triazol-3-yl)cyclobutyl)pyridin-2-yl)-6-(((1-methylcyclobutyl)amino)methyl)-4-(trifluoromethyl)isoindolin-1-one]
– | 5.5 | – | – | – | – | CCNc1cc(C2(c3nncn3C)CC(F)(F)C2)cc(N2Cc3c(cc(CNC4(C)CCC4)cc3C(F)(F)F)C2=O)n1 [Compound 62, 2-(4-(3,3-difluoro-1-(4-methyl-4H-1,2,4-triazol-3-yl)cyclobutyl)-6-(ethylamino)pyridin-2-yl)-6-(((1-methylcyclobutyl)amino)methyl)-4-(trifluoromethyl)isoindolin-1-one]
– | ≥ 20000 | 1.0x | – | – | – | CO[C@@](c1cccc(N2Cc3c(cc(CNC4(C)CCC4)cc3C(F)(F)F)C2=O)c1)(c1nncn1C)C1CCC1 (single isomer, unassigned) [Compound 118]
– | 5.7 | (1.1x) | – | – | 9.2 | Cn1cnnc1[C@]1(c2cc(NC3CCCC3)nc(N3Cc4c(cc(CNC5(C)CCC5)cc4C(F)(F)F)C3=O)c2)C[C@H](C)C1 [Compound 53, 2-(6-(cyclopentylamino)-4-((1s,3s)-3-methyl-1-(4-methyl-4H-1,2,4-triazol-3-yl)cyclobutyl)pyridin-2-yl)-6-(((1-methylcyclobutyl)amino)methyl)-4-(trifluoromethyl)isoindolin-1-one]
– | 7.2 | (1.3x) | – | – | 11 | Cn1cnnc1[C@]1(c2cc(NC3CCCC3)nc(N3Cc4c(cc(CNC5(C)CCC5)cc4C(F)(F)F)C3=O)c2)C[C@@H](C)C1 [Compound 52, 2-(6-(cyclopentylamino)-4-((1r,3r)-3-methyl-1-(4-methyl-4H-1,2,4-triazol-3-yl)cyclobutyl)pyridin-2-yl)-6-(((1-methylcyclobutyl)amino)methyl)-4-(trifluoromethyl)isoindolin-1-one]
– | ≥ 20000 | – | – | – | – | Cn1cnnc1[C@@H](C[C@H]1COCCO1)c1cccc(N2Cc3c(cc(CNC4(C)CCC4)cc3C(F)(F)F)C2=O)c1 (single isomer, unassigned) [Compound 295, 2-(3-((S)-2-((S)-1,4-dioxan-2-yl)-1-(4-methyl-4H-1,2,4-triazol-3-yl)ethyl)phenyl)-6-(((1-methylcyclobutyl)amino)methyl)-4-(trifluoromethyl)isoindolin-1-one]
– | 8.2 | (1.4x) | – | – | 11 | Cn1cnnc1[C@]1(c2cc(OC3CCCC3)nc(N3Cc4c(cc(CNC5(C)CCC5)cc4C(F)(F)F)C3=O)c2)C[C@H](C)C1 [Compound 54, 2-(6-(cyclopentyloxy)-4-((1s,3s)-3-methyl-1-(4-methyl-4H-1,2,4-triazol-3-yl)cyclobutyl)pyridin-2-yl)-6-(((1-methylcyclobutyl)amino)methyl)-4-(trifluoromethyl)isoindolin-1-one]
– | 6.7 | (1.4x) | – | – | – | Cn1cnnc1[C@]1(c2cc(OC3CCCC3)nc(N3Cc4c(cc(CNC5(C)CCC5)cc4C(F)(F)F)C3=O)c2)C[C@@H](C)C1 [Compound 55, 2-(6-(cyclopentyloxy)-4-((1r,3r)-3-methyl-1-(4-methyl-4H-1,2,4-triazol-3-yl)cyclobutyl)pyridin-2-yl)-6-(((1-methylcyclobutyl)amino)methyl)-4-(trifluoromethyl)isoindolin-1-one]
– | ≥ 20000 | 1.0x | – | – | – | CC(=O)N1CC(c2cccc(N3Cc4c(cc(CNC5(C)CCC5)cc4C(F)(F)F)C3=O)c2)(c2nncn2C)C1 [Compound 112, 2-(3-(1-acetyl-3-(4-methyl-4H-1,2,4-triazol-3-yl)azetidin-3-yl)phenyl)-6-(((1-methylcyclobutyl)amino)methyl)-4-(trifluoromethyl)isoindolin-1-one]
– | 55 | – | – | – | – | Cn1cnnc1[C@H](c1cccc(N2Cc3c(cc(CNC4(C)CCC4)cc3C(F)(F)F)C2=O)c1)[C@H]1C[C@H](C)C1 (single isomer, unassigned) [Compound 376]
– | – | – | 570 | – | – | CC1(NCc2cc3c(c(C(F)(F)F)c2)CN(c2cccc([C@@H](C4COC4)n4ccnn4)c2)C3=O)CCC1 (single isomer, unassigned) [Compound 436, (R)-6-(((1-methylcyclobutyl)amino)methyl)-2-(3-(oxetan-3-yl(1H-1,2,3-triazol-1-yl)methyl)phenyl)-4-(trifluoromethyl)isoindolin-1-one]

SMILES | IC50 (c-Cbl) [nM] | IC50 (Cbl-b) [nM] | fold-selectivity (Cbl-b over C-cbl) (Cbl-b) | IC50 (Cbl-b; Example 121) [nM] | (fold-selectivity) Cbl-b and C-Cbl Selectivity (Cbl-b) [x] | Fold of selectivity [1] [×]
Cn1cnnc1[C@H](OC1CCC1)c1cccc(N2Cc3c(cc(CNC4(C)CCC4)cc3C(F)(F)F)C2=O)c1 [Compound 47, (R)-2-(3-(cyclobutoxy(4-methyl-4H-1,2,4-triazol-3-yl)methyl)phenyl)-6-(((1-methylcyclobutyl)amino)methyl)-4-(trifluoromethyl)isoindolin-1-one] | 2300 | 1200 | (1.9x) | – | – | –
Cn1cnnc1[C@H](c1cccc(N2Cc3c(cc(CNC4(C)CCC4)cc3C(F)(F)F)C2=O)c1)C1CCOCC1.O=CO (single isomer, unassigned) [Compound 291] | – | – | 4.3x | – | – | 2.1
